Columns and labels:
[1] = system: isolated guinea-pig trachea specimen; assay: Effect on the KCl-induced contraction of the isolated guinea-pig trachea specimen; assay type: cell-based
Procedure: Effect on the KCl-induced contraction of the isolated guinea-pig trachea specimen
As in Experimental Example 1, potassium channel activating activity was evaluated by comparing the relaxing effects of the test drug on 20 mM KCl-induced contraction and 100 mM KCl-induced contraction.
Male 5-13-week-old Hartley guinea pigs (body weights 400-730 g) were used in groups of 2-4. After the animal was bled to death under ether anesthesia, the trachea was isolated and 4 tracheal strips were connected to prepare a specimen in accordance with the method of Takagi et al. (Chem. Pharm. Bull., 6, 716-720 (1958)). The experiment was performed in the same manner as described in Experimental Example 1.

[2] = system: isolated rat aorta specimen; assay: Effect on KCl-induced contraction of the isolated rat aorta specimen; assay type: cell-based; details: papaverine (100 μM) = 100% relaxation
Procedure: Effect on KCl-induced contraction of the isolated rat aorta specimen
In the present experiment, potassium channel activating activity was evaluated by comparing the pIC50 values representing the relaxing effects of the test drug on the 20 mM KCl-induced contraction and 100 mM KCl-contraction. According to Br. J. Pharmacol., 88, 103-111 (1986) referred to above, potassium channel activators produce greater relaxing effects on 20 mM KCl-induced contraction than on 100 mM KCl-induced contraction.
Male 7-13-week-old SD rats (body weights 240-480 g) were used in groups of 4-6. After the animal was bled to death under ether anesthesia, the throacic aorta was isolated and dissected into a spiral specimen about 2 mm wide×about 20 mm long. Each specimen was suspended in a 10 ml Magnus bath containing Krebs-Henseleit solution (KH solution) aerated with 95% O2+5% CO2 at 37° C. A tension load of 1 g was applied and with the KH solution exchanged every 20 minutes, the specimen was equilibrated for about 90 minutes. Then, the experiment was commenced. The change in tension of the specimen was recorded on a recticorder through an isometric tension transducer. The specimen was caused to contract by replacing the KH solution in the Magnus bath with 20 mM or 100 mM KCl-containing KH solution (NaCl in KH solution was replaced with an equimolar amount of KCl) and when the contractile response had reached plateau, the test drug was cumulatively applied to evaluate the relaxing effect.
Each result was expressed in the average of the relaxation ratio obtained in the presence of the test drug, with the maximum relaxation found with papaverine (100 μM) being taken as the 100% relaxation response of the specimen.

[3] = system: blood pressure in anesthetized rats; assay: Effect on blood pressure in anesthetized rats; assay type: in vivo, rat; details: 100 mg/kg intraduodenally; urethane-anesthetized female SD rats; % change at time of maximal action, up to 3 hours
Procedure: Effect on blood pressure in anesthetized rats
Female 10-13-week-old SD rats (body weights 180-300 g) fasted from the previous day were used in groups of 2-4. The animal was placed in supine position under urethane anesthesia and the femoral artery was cannulated for blood pressure measurement. The blood pressure was recorded on a recorder through the cannula and a pressure transducer. When the blood pressure had stabilized, the test drug was administered intraduodenally and the effect on blood pressure was monitored up to 3 hours after administration.
Each value is expressed as the average of % changes at the time of maximal action.

N#Cc1cc(-c2ccc3c(c2)OCO3)[nH]c1N1CCCC1 [Compound 11, 3-Cyano-5-(3,4-methylenedioxyphenyl)-2-pyrrolidinopyrrole] was tested, and the “Relaxation effect (%) 20 mM KCl-induced contraction” value ([1]; 10 μM) was 37% and the “Relaxation effect (%) 100 mM KCl-induced contraction” value ([1]; 10 μM) was 4%.

With Cc1c(-c2ccccc2)[nH]c(N)c1C#N [Compound 2, 2-Amino-3-cyano-4-methyl-5-phenylpyrrole] the “Relaxation effect (%) 20 mM KCl-induced contraction” value ([2]; 10 μM) was 78%, the “Relaxation effect (%) 100 mM KCl-induced contraction” value ([2]; 10 μM) was 17% and the “Hypotensive effect (%)” value [3] was 25.9%.

For N#Cc1cc(-c2ccc3c(c2)OCO3)[nH]c1N [Compound 5, 2-Amino-3-cyano-5-(3,4-methylenedioxyphenyl)pyrrole], the “Relaxation effect (%) 20 mM KCl-induced contraction” value ([1]; 10 μM) was 58%, the “Relaxation effect (%) 100 mM KCl-induced contraction” value ([1]; 10 μM) was −7% and the “Relaxation effect (%) 20 mM KCl-induced contraction” value ([2]; 10 μM) was 73%. The “Relaxation effect (%) 100 mM KCl-induced contraction” value ([2]; 10 μM) was 18%.

In the case of Cc1c(-c2ccccc2F)[nH]c(N)c1C#N [Compound 1, 2-Amino-3-cyano-5-(2-fluorophenyl)-4-methylpyrrole], the “Relaxation effect (%) 20 mM KCl-induced contraction” value ([2]; 10 μM) is reported as 82% and the “Relaxation effect (%) 100 mM KCl-induced contraction” value ([2]; 10 μM) is reported as 28%.

Cc1c(-c2cccc(Cl)c2)[nH]c(N)c1C#N [Compound 3, 2-Amino-5-(3-chlorophenyl)-3-cyano-4-methylpyrrole] was tested, and the “Relaxation effect (%) 20 mM KCl-induced contraction” value ([2]; 1 μM) was 45%, the “Relaxation effect (%) 100 mM KCl-induced contraction” value ([2]; 1 μM) was 6% and the “Hypotensive effect (%)” value [3] was 14.1%.

In the case of Cc1c(-c2cccc([N+](=O)[O-])c2)[nH]c(N)c1C#N [Compound 8, 2-Amino-3-cyano-4-methyl-5-(3-nitrophenyl)pyrrole], the “Relaxation effect (%) 20 mM KCl-induced contraction” value ([1]; 3 μM) is reported as 58% and the “Relaxation effect (%) 100 mM KCl-induced contraction” value ([1]; 3 μM) is reported as −2%.

With Cc1[nH]c(-c2cccc(Cl)c2)cc1C#N [Compound 7, 5-(3-Chlorophenyl)-3-cyano-2-methylpyrrole] the “Relaxation effect (%) 20 mM KCl-induced contraction” value ([1]; 3 μM) was 64% and the “Relaxation effect (%) 100 mM KCl-induced contraction” value ([1]; 3 μM) was 31%.

For Cc1[nH]c(-c2ccccc2)c(C)c1C#N [Compound 9, 3-Cyano-2,4-dimethyl-5-phenylpyrrole], the “Relaxation effect (%) 20 mM KCl-induced contraction” value ([1]; 10 μM) was 79% and the “Relaxation effect (%) 100 mM KCl-induced contraction” value ([1]; 10 μM) was 39%.

With Cc1c(-c2ccco2)[nH]c(N)c1C#N [Compound 4, 2-Amino-3-cyano-5-(2-furyl)-4-methylpyrrole] the “Relaxation effect (%) 20 mM KCl-induced contraction” value ([2]; 10 μM) was 64%, the “Relaxation effect (%) 100 mM KCl-induced contraction” value ([2]; 10 μM) was 12% and the “Hypotensive effect (%)” value [3] was 25.6%.

For CCOc1cccc(-c2cc(C#N)c(N3CCCC3)[nH]2)c1 [Compound 10, 3-Cyano-5-(3-ethoxyphenyl)-2-pyrrolidinopyrrole], the “Relaxation effect (%) 20 mM KCl-induced contraction” value ([1]; 3 μM) was 37% and the “Relaxation effect (%) 100 mM KCl-induced contraction” value ([1]; 3 μM) was −15%.

In the case of N#Cc1cc(-c2ccc(F)cc2F)[nH]c1N [Compound 6, 2-Amino-3-cyano-5-(2,4-difluorophenyl)pyrrole], the “Relaxation effect (%) 20 mM KCl-induced contraction” value ([2]; 10 μM) is reported as 92% and the “Relaxation effect (%) 100 mM KCl-induced contraction” value ([2]; 10 μM) is reported as 24%.
